Experimental data published in patent US9884832B2 (priority 2011, dated 2018).
Where two headings read alike, the source gives them in different places.

Tests used:
[1] = biological target: AM2 S31N (serine→asparagine mutation at residue 31 in the M2 protein) (Influenza A virus, UniProt P0DOF5, S31N); type: cell-based, influenza virus A/Udorn/72
[2] = biological target: AM2 V27A (valine→alanine mutation at residue 27 in the M2 protein) (Influenza A virus, UniProt P0DOF5, V27A); type: cell-based, influenza virus A/Udorn/72

Row | SMILES | S31N OOcyte Inhibition at 100 uM (%) [1] | V27A OOcyte Inhibition at 100 uM (%) [2] | S31N OOcyte Inhibition at 100 uM (%) ([1]; pH 5.5) | V27A OOcyte Inhibition at 100 uM (%) ([2]; pH 5.5)
1 | Brc1ccc(CNC23CC4CC(CC(C4)C2)C3)s1 [Example 81a, N-((5-Bromothiophen-2-yl)methyl)adamantan-1-amine] | A (key: (A)=31-95%; (B)=0-30%) | B (key: (A)=31-95%; (B)=0-30%) | – | –
2 | c1cc(CNC23CC4CC(CC(C4)C2)C3)c2cc[nH]c2c1 [Example 96, Adamantan-1-yl-(1H-indol-4-ylmethyl)-amine] | – | – | B (key: (A)=31-95%; (B)=0-30%) | A (key: (A)=31-95%; (B)=0-30%)
3 | Oc1ccc(CNC23CC4CC(CC(C4)C2)C3)cc1F [Example 48, 4-(Adamantan-1-ylaminomethyl)-2-fluoro-phenol] | – | – | A (key: (A)=31-95%; (B)=0-30%) | A (key: (A)=31-95%; (B)=0-30%)
4 | c1csc(-c2ccc(CNC3C4CC5CC(C4)CC3C5)s2)c1 (stereo not drawn) [Example 205a, N-([2,2′-bithiophen]-5-ylmethyl)adamantan-2-amine] | A (key: (A)=31-95%; (B)=0-30%) | B (key: (A)=31-95%; (B)=0-30%) | – | –
5 | c1coc(-c2ccc(CNC34CC5CC(CC(C5)C3)C4)cn2)c1 [Example 60a, N-((6-(furan-2-yl)pyridin-3-yl)methyl)adamantan-1-amine] | A (key: (A)=31-95%; (B)=0-30%) | B (key: (A)=31-95%; (B)=0-30%) | – | –
6 | CC(NCc1ccc(O)cc1)C12CC3CC(CC(C3)C1)C2 (stereo not drawn) [Example 4, 4-[(1-Adamantan-1-yl-ethylamino)-methyl]-phenol] | – | – | B (key: (A)=31-95%; (B)=0-30%) | B (key: (A)=31-95%; (B)=0-30%)
7 | CC(C)(C)c1ccc(CNC23CC4CC(CC(C4)C2)C3)cc1 [Example 7a, N-(4-(tert-Butyl)benzyl)adamantan-1-amine methanesulfonate] | A (key: (A)=31-95%; (B)=0-30%) | B (key: (A)=31-95%; (B)=0-30%) | – | –
8 | CSc1ccc(CNC23CC4CC(CC(C4)C2)C3)c(SC)c1 [Example 55, Adamantan-1-yl-(2,4-bis-methylsulfanyl-benzyl)-amine] | – | – | B (key: (A)=31-95%; (B)=0-30%) | B (key: (A)=31-95%; (B)=0-30%)
9 | Oc1cc(-c2cc3ccccc3o2)ccc1CNC12CC3CC(CC(C3)C1)C2 [Example 48a] | B (key: (A)=31-95%; (B)=0-30%) | B (key: (A)=31-95%; (B)=0-30%) | – | –
10 | OCc1cc(Br)ccc1CNC12CC3CC(CC(C3)C1)C2 [Example 52a, [2-(Adamantan-1-ylaminomethyl)-5-bromo-phenyl]methanol] | B (key: (A)=31-95%; (B)=0-30%) | B (key: (A)=31-95%; (B)=0-30%) | – | –
11 | Nc1ncc(CNC23CC4CC(CC(C4)C2)C3)cn1 [Example 75, 5-(Adamantan-1-ylaminomethyl)-pyrimidin-2-ylamine] | – | – | B (key: (A)=31-95%; (B)=0-30%) | B (key: (A)=31-95%; (B)=0-30%)
12 | Oc1cccc(CNC23CC4CC(CC(C4)C2)C3)c1 [Example 31, 3-(Adamantan-1-ylaminomethyl)-phenol] | – | – | B (key: (A)=31-95%; (B)=0-30%) | A (key: (A)=31-95%; (B)=0-30%)
13 | O=[N+]([O-])c1cc(CNC23CC4CC(CC(C4)C2)C3)ccc1O [Example 52, 4-(Adamantan-1-ylaminomethyl)-2-nitro-phenol] | – | – | B (key: (A)=31-95%; (B)=0-30%) | A (key: (A)=31-95%; (B)=0-30%)
14 | COC(=O)C(Cc1cnc[nH]1)NCC12CC3CC(CC(C3)C1)C2 (stereo not drawn) [Example 3, 2-[(Adamantan-1-ylmethyl)-amino]-3-(3H-imidazol-4-yl)-propionic acid methyl ester] | – | – | B (key: (A)=31-95%; (B)=0-30%) | B (key: (A)=31-95%; (B)=0-30%)
15 | OCC(Cc1cnc[nH]1)NCC12CC3CC(CC(C3)C1)C2 (stereo not drawn) [Example 2, 2-[(adamantan-1-ylmethyl)-amino]-3-(3H-imidazol-4-yl)-propan-1-ol] | – | – | B (key: (A)=31-95%; (B)=0-30%) | B (key: (A)=31-95%; (B)=0-30%)
16 | Oc1c(F)cc(CNC23CC4CC(CC(C4)C2)C3)cc1Cl [Example 68, 4-(Adamantan-1-ylaminomethyl)-2-chloro-6-fluoro-phenol] | – | – | B (key: (A)=31-95%; (B)=0-30%) | B (key: (A)=31-95%; (B)=0-30%)
17 | OC1CCC(CNC23CC4CC(CC(C4)C2)C3)CC1 (stereo not drawn) [Example 170a, 4-(Adamantan-1-ylaminomethyl)-cyclohexanol] | B (key: (A)=31-95%; (B)=0-30%) | B (key: (A)=31-95%; (B)=0-30%) | – | –
18 | c1ccc2[nH]c(CNC34CC5CC(CC(C5)C3)C4)nc2c1 [Example 92, Adamantan-1-yl-(1H-benzoimidazol-2-ylmethyl)-amine] | – | – | A (key: (A)=31-95%; (B)=0-30%) | B (key: (A)=31-95%; (B)=0-30%)

Row | SMILES | S31N OOcyte Inhibition at 100 uM (%) [1] | V27A OOcyte Inhibition at 100 uM (%) [2] | S31N OOcyte Inhibition at 100 uM (%) ([1]; pH 5.5) | V27A OOcyte Inhibition at 100 uM (%) ([2]; pH 5.5)
19 | c1cc(CNC23CC4CC(CC(C4)C2)C3)ccn1 [Example 73, Adamantan-1-yl-pyridin-4-ylmethyl-amine] | – | – | B (key: (A)=31-95%; (B)=0-30%) | B (key: (A)=31-95%; (B)=0-30%)
20 | COc1ccsc1CNC12CC3CC(CC(C3)C1)C2 [Example 74a, Adamantan-1-yl-(3-methoxy-thiophen-2-ylmethyl)-amine] | A (key: (A)=31-95%; (B)=0-30%) | B (key: (A)=31-95%; (B)=0-30%) | – | –
21 | CC(NC12CC3CC(CC(C3)C1)C2)c1ccc(C#N)s1 (stereo not drawn) [Example 92a, 5-(1-(adamantan-1-ylamino)ethyl)thiophene-2-carbonitrile] | B (key: (A)=31-95%; (B)=0-30%) | B (key: (A)=31-95%; (B)=0-30%) | – | –
22 | Cn1c(CNC23CC4CC(CC(C4)C2)C3)cc2sccc21 [Example 172a, Adamantan-1-yl-(4-methyl-4H-thieno[3,2-b]pyrrol-5-ylmethyl)-amine] | B (key: (A)=31-95%; (B)=0-30%) | B (key: (A)=31-95%; (B)=0-30%) | – | –
23 | COc1ccc2cc(CNC34CC5CC(CC(C5)C3)C4)ccc2c1 [Example 40a, Adamantan-1-yl-(6-methoxy-naphthalen-2-ylmethyl)-amine] | B (key: (A)=31-95%; (B)=0-30%) | A (key: (A)=31-95%; (B)=0-30%) | – | –
24 | c1cc2cn[nH]c2cc1CNC12CC3CC(CC(C3)C1)C2 [Example 95, Adamantan-1-yl-(1H-indazol-6-ylmethyl)-amine] | – | – | B (key: (A)=31-95%; (B)=0-30%) | A (key: (A)=31-95%; (B)=0-30%)
25 | Cc1nn2cc(CNC3C4CC5CC(C4)CC3C5)nc2s1 (stereo not drawn) [Example 106, Adamantan-2-yl-(2-methyl-imidazo[2,1-b][1,3,4]thiadiazol-6-ylmethyl)-amine] | – | – | B (key: (A)=31-95%; (B)=0-30%) | A (key: (A)=31-95%; (B)=0-30%)
26 | F[B-](F)(F)c1ccc(CNC23CC4CC(CC(C4)C2)C3)cc1.[K+] [Example 2a] | B (key: (A)=31-95%; (B)=0-30%) | A (key: (A)=31-95%; (B)=0-30%) | – | –
27 | c1cn(-c2ccc(CNC34CC5CC(CC(C5)C3)C4)cc2)cn1 [Example 36, Adamantan-1-yl-(4-imidazol-1-yl-benzyl)-amine] | – | – | B (key: (A)=31-95%; (B)=0-30%) | B (key: (A)=31-95%; (B)=0-30%)
28 | C(=C\c1ccccc1)/CNC12CC3CC(CC(C3)C1)C2 [Example 199a, N-cinnamyladamantan-1-amine] | A (key: (A)=31-95%; (B)=0-30%) | B (key: (A)=31-95%; (B)=0-30%) | – | –
29 | Oc1cc(F)c(CNC23CC4CC(CC(C4)C2)C3)c(F)c1 [Example 69, 4-(Adamantan-1-ylaminomethyl)-3,5-difluoro-phenol] | – | – | B (key: (A)=31-95%; (B)=0-30%) | A (key: (A)=31-95%; (B)=0-30%)
30 | c1csc(-c2ncc(CNC34CC5CC(CC(C5)C3)C4)cn2)c1 [Example 61a, N-((2-(thiophen-2-yl)pyrimidin-5-yl)methyl)adamantan-1-amine] | A (key: (A)=31-95%; (B)=0-30%) | B (key: (A)=31-95%; (B)=0-30%) | – | –
31 | Brc1nc(CNC23CC4CC(CC(C4)C2)C3)cs1 [Example 83a, N-((2-bromothiazol-4-yl)methyl)adamantan-1-amine] | A (key: (A)=31-95%; (B)=0-30%) | B (key: (A)=31-95%; (B)=0-30%) | – | –
32 | Cc1noc(C)c1-c1ccc(CNC23CC4CC(CC(C4)C2)C3)cc1 [Example 33a, N-(4-(3,5-Dimethylisoxazol-4-yl)benzyl)adamantan-1-amine] | B (key: (A)=31-95%; (B)=0-30%) | B (key: (A)=31-95%; (B)=0-30%) | – | –
33 | c1ccc2sc(CNC34CC5CC(CC(C5)C3)C4)cc2c1 [Example 88, Adamantan-1-yl-benzo[b]thiophen-2-ylmethyl-amine] | – | – | A (key: (A)=31-95%; (B)=0-30%) | B (key: (A)=31-95%; (B)=0-30%)
34 | Oc1cccc2ccc(CNC34CC5CC(CC(C5)C3)C4)nc12 [Example 65a, 2-((adamantan-1-ylamino)methyl)quinolin-8-ol] | B (key: (A)=31-95%; (B)=0-30%) | B (key: (A)=31-95%; (B)=0-30%) | – | –
35 | Oc1ccc(CNC23CC4CC(CC(C4)C2)C3)cc1Cl [Example 47, 4-(Adamantan-1-ylaminomethyl)-2-chloro-phenol] | – | – | B (key: (A)=31-95%; (B)=0-30%) | A (key: (A)=31-95%; (B)=0-30%)
36 | c1cc(C2CCCCC2)ccc1CNC12CC3CC(CC(C3)C1)C2 [Example 10a, Adamantan-1-yl-(4-cyclohexyl-benzyl)-amine] | A (key: (A)=31-95%; (B)=0-30%) | B (key: (A)=31-95%; (B)=0-30%) | – | –
